Reference: paper PMC11289455 (Scientific Reports, 2024)
Like-named read-outs stand apart in the source and are kept apart here.

What was measured:
[1] = target: T1, Lck kinase (lymphocyte-specific protein tyrosine kinase) (Homo sapiens, UniProt P06239); assay: SafetyScreen44: Lck kinase; format: biochemical
T1 construct: purchased Eurofins Cerep SafetyScreen44

[2] = target: T2, GR (glucocorticoid receptor) (Homo sapiens, UniProt P04150); assay: SafetyScreen44: GR; format: binding
T2 construct: purchased Eurofins Cerep SafetyScreen44
T2 sequence (P04150 1-777): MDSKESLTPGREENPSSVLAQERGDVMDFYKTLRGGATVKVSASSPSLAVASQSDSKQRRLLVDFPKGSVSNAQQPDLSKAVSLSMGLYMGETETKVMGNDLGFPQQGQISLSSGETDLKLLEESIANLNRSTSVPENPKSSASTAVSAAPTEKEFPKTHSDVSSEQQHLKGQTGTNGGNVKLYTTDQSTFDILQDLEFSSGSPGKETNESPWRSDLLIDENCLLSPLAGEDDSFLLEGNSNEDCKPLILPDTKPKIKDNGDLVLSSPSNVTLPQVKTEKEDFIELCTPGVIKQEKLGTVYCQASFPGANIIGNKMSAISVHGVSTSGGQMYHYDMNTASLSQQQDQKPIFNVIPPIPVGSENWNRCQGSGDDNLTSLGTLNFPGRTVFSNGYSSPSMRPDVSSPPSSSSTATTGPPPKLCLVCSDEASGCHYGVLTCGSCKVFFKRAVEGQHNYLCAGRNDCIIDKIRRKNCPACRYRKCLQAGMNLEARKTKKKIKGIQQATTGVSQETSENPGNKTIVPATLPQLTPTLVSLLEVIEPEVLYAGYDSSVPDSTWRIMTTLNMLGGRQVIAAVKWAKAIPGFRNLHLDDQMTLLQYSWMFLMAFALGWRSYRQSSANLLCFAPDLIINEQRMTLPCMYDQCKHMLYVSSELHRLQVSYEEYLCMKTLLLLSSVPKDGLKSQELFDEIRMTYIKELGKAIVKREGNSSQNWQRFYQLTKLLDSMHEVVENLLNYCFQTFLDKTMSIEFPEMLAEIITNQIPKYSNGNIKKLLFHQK

[3] = target: T3, Norepinephrine transporter (Homo sapiens, UniProt P23975); assay: SafetyScreen44: norepinephrine transporter; format: binding
T3 construct: purchased Eurofins Cerep SafetyScreen44
T3 sequence (P23975 whole entry): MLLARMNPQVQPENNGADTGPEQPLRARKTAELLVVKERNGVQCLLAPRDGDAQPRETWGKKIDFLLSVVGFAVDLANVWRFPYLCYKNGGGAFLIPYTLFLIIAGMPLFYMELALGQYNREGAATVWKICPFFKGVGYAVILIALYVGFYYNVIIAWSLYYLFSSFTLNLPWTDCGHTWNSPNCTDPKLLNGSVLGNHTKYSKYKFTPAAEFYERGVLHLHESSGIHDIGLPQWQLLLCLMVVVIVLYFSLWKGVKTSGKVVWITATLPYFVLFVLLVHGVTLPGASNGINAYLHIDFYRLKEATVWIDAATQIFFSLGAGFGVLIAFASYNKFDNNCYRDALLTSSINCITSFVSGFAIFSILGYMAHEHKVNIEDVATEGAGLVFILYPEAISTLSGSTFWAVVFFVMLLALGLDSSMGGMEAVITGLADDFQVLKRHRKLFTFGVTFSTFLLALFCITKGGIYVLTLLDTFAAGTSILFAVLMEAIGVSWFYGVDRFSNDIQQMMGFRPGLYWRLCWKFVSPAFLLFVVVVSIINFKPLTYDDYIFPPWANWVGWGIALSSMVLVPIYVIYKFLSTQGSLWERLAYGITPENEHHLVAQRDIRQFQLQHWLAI

[4] = target: T4, D1 (dopamine D1 receptor) (Homo sapiens, UniProt P21728); assay: SafetyScreen44: D1; format: binding
T4 construct: purchased Eurofins Cerep SafetyScreen44
T4 sequence (P21728 whole entry): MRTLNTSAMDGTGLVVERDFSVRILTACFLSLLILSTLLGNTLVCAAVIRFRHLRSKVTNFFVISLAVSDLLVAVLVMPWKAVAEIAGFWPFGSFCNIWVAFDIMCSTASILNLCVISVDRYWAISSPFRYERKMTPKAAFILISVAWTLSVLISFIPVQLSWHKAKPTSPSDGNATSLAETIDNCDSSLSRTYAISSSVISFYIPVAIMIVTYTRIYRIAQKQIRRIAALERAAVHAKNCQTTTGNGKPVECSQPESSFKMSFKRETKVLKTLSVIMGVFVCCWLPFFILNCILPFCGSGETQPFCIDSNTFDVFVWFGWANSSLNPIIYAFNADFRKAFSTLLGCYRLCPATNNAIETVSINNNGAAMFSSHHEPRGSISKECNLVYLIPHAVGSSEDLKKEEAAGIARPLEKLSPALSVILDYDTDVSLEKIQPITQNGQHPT

[5] = target: T5, D2S (short dopamine D2 receptor) (Homo sapiens, UniProt P14416); assay: SafetyScreen44: D2S; format: binding
T5 construct: purchased Eurofins Cerep SafetyScreen44
T5 sequence (P14416 1-414 isoform P14416-2): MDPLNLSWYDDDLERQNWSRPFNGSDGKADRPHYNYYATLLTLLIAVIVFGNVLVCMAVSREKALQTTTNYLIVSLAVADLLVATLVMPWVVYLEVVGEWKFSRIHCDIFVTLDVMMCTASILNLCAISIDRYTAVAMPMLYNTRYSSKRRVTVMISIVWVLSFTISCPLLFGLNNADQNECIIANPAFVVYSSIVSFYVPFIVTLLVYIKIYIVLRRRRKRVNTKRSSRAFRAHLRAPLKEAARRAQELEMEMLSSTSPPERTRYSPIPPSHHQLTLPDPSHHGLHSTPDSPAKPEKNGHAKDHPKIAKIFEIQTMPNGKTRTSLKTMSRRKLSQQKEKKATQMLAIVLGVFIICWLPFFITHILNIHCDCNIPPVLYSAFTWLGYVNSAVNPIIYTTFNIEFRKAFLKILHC

[6] = target: T6, M1 (muscarinic acetylcholine receptor M1) (Homo sapiens, UniProt P11229); assay: SafetyScreen44: M1; format: binding
T6 construct: purchased Eurofins Cerep SafetyScreen44
T6 sequence (P11229 1-460): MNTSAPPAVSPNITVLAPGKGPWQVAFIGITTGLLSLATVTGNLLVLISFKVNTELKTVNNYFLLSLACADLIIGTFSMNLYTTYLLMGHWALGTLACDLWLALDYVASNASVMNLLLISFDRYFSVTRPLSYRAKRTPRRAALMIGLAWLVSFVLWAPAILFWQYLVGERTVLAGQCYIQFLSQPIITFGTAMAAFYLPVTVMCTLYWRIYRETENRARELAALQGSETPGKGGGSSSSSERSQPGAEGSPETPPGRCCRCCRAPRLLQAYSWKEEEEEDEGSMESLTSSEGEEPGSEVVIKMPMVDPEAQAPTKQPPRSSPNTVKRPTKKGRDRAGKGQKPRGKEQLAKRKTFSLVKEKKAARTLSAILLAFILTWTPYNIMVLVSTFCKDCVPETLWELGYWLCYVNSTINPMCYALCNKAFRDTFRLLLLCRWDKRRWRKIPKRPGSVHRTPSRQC

[7] = target: T7, COX2 (Homo sapiens, UniProt P35354); assay: SafetyScreen44: COX2; format: biochemical
T7 construct: purchased Eurofins Cerep SafetyScreen44
T7 sequence (P35354 18-604): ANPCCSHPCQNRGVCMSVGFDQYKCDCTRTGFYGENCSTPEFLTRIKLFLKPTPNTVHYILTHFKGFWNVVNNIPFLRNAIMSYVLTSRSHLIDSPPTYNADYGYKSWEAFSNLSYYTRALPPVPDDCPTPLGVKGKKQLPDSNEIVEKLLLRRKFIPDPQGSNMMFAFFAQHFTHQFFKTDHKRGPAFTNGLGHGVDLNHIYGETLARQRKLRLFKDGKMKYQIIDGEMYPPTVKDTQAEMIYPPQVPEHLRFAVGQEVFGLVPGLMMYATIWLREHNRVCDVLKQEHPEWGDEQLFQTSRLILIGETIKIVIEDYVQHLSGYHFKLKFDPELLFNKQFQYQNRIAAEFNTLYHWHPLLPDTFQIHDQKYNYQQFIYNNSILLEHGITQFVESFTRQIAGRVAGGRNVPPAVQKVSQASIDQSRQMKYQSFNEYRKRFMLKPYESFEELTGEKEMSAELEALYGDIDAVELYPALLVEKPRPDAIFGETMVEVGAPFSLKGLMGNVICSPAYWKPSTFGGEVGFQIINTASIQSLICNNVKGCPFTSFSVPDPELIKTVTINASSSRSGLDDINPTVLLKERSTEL

[8] = target: T8, PDE4D2 (cAMP-specific 3’,5’-cyclic phosphodiesterase 4D2) (Homo sapiens, UniProt Q08499); assay: SafetyScreen44: PDE4D2; format: biochemical
T8 construct: purchased Eurofins Cerep SafetyScreen44
T8 sequence (Q08499 303-809 limits assumed): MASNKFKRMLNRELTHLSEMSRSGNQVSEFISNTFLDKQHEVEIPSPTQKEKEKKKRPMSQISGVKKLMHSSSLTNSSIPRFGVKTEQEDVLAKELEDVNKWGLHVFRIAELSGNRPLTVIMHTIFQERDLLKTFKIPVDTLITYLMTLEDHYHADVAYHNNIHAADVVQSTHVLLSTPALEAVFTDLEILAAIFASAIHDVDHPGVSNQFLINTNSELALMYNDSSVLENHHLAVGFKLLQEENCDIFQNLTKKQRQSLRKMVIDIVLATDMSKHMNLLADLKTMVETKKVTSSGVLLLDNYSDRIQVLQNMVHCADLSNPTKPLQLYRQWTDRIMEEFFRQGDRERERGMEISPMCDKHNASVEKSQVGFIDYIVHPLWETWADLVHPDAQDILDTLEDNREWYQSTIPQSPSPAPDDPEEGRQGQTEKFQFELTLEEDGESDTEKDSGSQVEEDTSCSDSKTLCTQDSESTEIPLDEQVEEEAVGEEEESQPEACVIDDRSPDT

[9] = target: T9, N neuronal α4β2 (neuronal alpha-4-beta-2 nicotinic acetylcholine receptor) (Homo sapiens, UniProt P17787+P43681); assay: SafetyScreen44: N neuronal α4β2; format: binding
T9 construct: purchased Eurofins Cerep SafetyScreen44
T9 sequence (P43681 29-627 limits assumed): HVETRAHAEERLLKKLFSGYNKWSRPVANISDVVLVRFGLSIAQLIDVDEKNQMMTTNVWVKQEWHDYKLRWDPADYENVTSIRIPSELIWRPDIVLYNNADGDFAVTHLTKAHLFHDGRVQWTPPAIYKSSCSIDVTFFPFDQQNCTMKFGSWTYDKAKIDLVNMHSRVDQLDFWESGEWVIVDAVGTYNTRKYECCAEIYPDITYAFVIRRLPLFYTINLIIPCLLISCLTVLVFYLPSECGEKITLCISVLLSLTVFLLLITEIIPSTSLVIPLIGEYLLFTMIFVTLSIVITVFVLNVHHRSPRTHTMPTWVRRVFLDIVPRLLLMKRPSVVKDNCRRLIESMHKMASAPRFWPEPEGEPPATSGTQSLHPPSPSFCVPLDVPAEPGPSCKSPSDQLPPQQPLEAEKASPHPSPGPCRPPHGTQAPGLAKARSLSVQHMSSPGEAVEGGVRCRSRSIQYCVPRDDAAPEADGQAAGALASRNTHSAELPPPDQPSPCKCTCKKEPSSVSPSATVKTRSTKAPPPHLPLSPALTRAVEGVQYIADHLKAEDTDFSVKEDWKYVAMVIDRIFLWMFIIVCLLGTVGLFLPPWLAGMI
T9 sequence (P17787 26-502): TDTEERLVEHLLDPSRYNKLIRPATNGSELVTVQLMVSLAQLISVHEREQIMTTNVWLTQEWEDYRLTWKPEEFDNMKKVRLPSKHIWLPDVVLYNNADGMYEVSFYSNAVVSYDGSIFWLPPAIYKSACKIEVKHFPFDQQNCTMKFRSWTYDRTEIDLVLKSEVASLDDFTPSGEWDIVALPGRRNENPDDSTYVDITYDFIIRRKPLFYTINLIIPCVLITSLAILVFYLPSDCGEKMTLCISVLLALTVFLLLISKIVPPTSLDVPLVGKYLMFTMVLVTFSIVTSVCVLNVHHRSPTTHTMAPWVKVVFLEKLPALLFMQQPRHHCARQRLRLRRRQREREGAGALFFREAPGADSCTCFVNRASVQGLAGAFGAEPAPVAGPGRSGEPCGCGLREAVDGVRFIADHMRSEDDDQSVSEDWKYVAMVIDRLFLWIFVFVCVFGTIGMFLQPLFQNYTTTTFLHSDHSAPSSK

T1 sequence (P06239 whole entry): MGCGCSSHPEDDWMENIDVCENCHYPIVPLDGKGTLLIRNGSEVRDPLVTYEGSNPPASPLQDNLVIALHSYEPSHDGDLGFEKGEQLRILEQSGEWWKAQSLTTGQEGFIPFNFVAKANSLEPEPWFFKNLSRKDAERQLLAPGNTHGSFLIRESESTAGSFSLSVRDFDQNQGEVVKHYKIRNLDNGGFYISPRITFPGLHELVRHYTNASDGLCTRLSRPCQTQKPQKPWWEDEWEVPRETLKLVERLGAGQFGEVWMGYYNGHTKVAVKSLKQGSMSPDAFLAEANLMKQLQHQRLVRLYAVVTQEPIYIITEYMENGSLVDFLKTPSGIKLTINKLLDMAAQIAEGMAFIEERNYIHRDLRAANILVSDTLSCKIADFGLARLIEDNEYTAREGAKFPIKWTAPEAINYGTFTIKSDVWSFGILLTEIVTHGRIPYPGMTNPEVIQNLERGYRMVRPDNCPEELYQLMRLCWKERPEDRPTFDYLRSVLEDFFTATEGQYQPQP

CC(=O)NCCCC[C@@H]1NC(=O)[C@H](Cc2c[nH]c3c(C)cccc23)NC(=O)[C@H]([C@@H](C)O)NC(=O)[C@H](CC(N)=O)NC(=O)[C@@H](NC(C)=O)C(C)(C)SSC(C)(C)[C@@H](C(=O)N[C@@H](Cc2ccc(OCCN)cc2)C(=O)N[C@@H](Cc2ccc3ccccc3c2)C(=O)NC2(C(=O)N[C@@H](CCC(=O)O)C(=O)N[C@@H](CC(N)=O)C(=O)N[C@@H](Cc3cccnc3)C(=O)N(C)CC(N)=O)CCOCC2)NC1=O [JNJ-77242113, S^3,1,S^3,6-cyclo[N-acetyl-3-sulfanyl-L-valyl-L-asparaginyl-L-threonyl-7-methyl-L-tryptophyl-N^6-acetyl-L-lysyl-3-sulfanyl-L-valyl-O-(2-aminoethyl)-L-tyrosyl-3-(naphthalen-2-yl)-L-alanyl-4-aminooxan-4-carbonyl-L-α-glutamyl-L-asparaginyl-3-(pyridin-3-yl)-L-alanyl-N^2-methylglycinamide]]
inhibition at 10 µM ([1]; 1st run, read-out: Percent inhibition of control ligand binding, Lck kinase, 1st run): 8.6% | inhibition at 10 µM ([1]; 2nd run, read-out: Percent inhibition of control ligand binding, Lck kinase, 2nd run): -2.3% | inhibition at 10 µM ([1]; mean of 2 runs, read-out: Percent inhibition of control ligand binding, Lck kinase, Mean): 3.1% | inhibition at 10 µM ([2]; 1st run, read-out: Percent inhibition of control ligand binding, GR, 1st run): 3.5% | inhibition at 10 µM ([2]; 2nd run, read-out: Percent inhibition of control ligand binding, GR, 2nd run): -0.8% | inhibition at 10 µM ([2]; mean of 2 runs, read-out: Percent inhibition of control ligand binding, GR, Mean): 1.3% | inhibition at 10 µM ([3]; 1st run, read-out: Percent inhibition of control ligand binding, Norepinephrine transporter, 1st run): -1.3% | inhibition at 10 µM ([3]; 2nd run, read-out: Percent inhibition of control ligand binding, Norepinephrine transporter, 2nd run): -0.6% | inhibition at 10 µM ([3]; mean of 2 runs, read-out: Percent inhibition of control ligand binding, Norepinephrine transporter, Mean): -1% | inhibition at 10 µM ([4]; 1st run, read-out: Percent inhibition of control ligand binding, D1, 1st run): 2.2% | inhibition at 10 µM ([4]; 2nd run, read-out: Percent inhibition of control ligand binding, D1, 2nd run): 3.7% | inhibition at 10 µM ([4]; mean of 2 runs, read-out: Percent inhibition of control ligand binding, D1, Mean): 2.9% | inhibition at 10 µM ([5]; 1st run, read-out: Percent inhibition of control ligand binding, D2S, 1st run): -6.6% | inhibition at 10 µM ([5]; 2nd run, read-out: Percent inhibition of control ligand binding, D2S, 2nd run): -6.6% | inhibition at 10 µM ([5]; mean of 2 runs, read-out: Percent inhibition of control ligand binding, D2S, Mean): -6.6% | inhibition at 10 µM ([6]; 1st run, read-out: Percent inhibition of control ligand binding, M1, 1st run): -4.1% | inhibition at 10 µM ([6]; 2nd run, read-out: Percent inhibition of control ligand binding, M1, 2nd run): 3.3% | inhibition at 10 µM ([6]; mean of 2 runs, read-out: Percent inhibition of control ligand binding, M1, Mean): -0.4% | inhibition at 10 µM ([7]; 1st run, read-out: Percent inhibition of control ligand binding, COX2, 1st run): 7.8% | inhibition at 10 µM ([7]; 2nd run, read-out: Percent inhibition of control ligand binding, COX2, 2nd run): -0.9% | inhibition at 10 µM ([7]; mean of 2 runs, read-out: Percent inhibition of control ligand binding, COX2, Mean): 3.4% | inhibition at 10 µM ([8]; 1st run, read-out: Percent inhibition of control ligand binding, PDE4D2, 1st run): -22.6% | inhibition at 10 µM ([8]; 2nd run, read-out: Percent inhibition of control ligand binding, PDE4D2, 2nd run): -11.7% | inhibition at 10 µM ([8]; mean of 2 runs, read-out: Percent inhibition of control ligand binding, PDE4D2, Mean): -17.1% | inhibition at 10 µM ([9]; 1st run, read-out: Percent inhibition of control ligand binding, N neuronal α4β2, 1st run): -10.4% | inhibition at 10 µM ([9]; 2nd run, read-out: Percent inhibition of control ligand binding, N neuronal α4β2, 2nd run): -7.5% | inhibition at 10 µM ([9]; mean of 2 runs, read-out: Percent inhibition of control ligand binding, N neuronal α4β2, Mean): -8.9%
